Test results published in the NIST ThermoML archive (doi:10.1021/acs.jced.8b00202).
Numbers after ± are expanded uncertainties.

Details: Liquid, Frequency=8 MHz, Dual path-length method

CC(C)C [2-methylpropane]
Details	speed of sound [m/s]
199.99 K, 409.39 kPa	1393.6 ± 0.08
199.99 K, 599.71 kPa	1394.9 ± 0.08
199.99 K, 1103.6 kPa	1398.1 ± 0.08
199.99 K, 2104.3 kPa	1404.5 ± 0.08
199.99 K, 3104.9 kPa	1410.8 ± 0.09
199.99 K, 4105.7 kPa	1417.1 ± 0.09
199.99 K, 5106.3 kPa	1423.3 ± 0.09
199.99 K, 6107 kPa	1429.4 ± 0.09
199.99 K, 7107.8 kPa	1435.5 ± 0.09
199.99 K, 8108.5 kPa	1441.5 ± 0.09
199.99 K, 9109.1 kPa	1447.5 ± 0.09
199.99 K, 10110 kPa	1453.4 ± 0.09
199.99 K, 12612 kPa	1467.8 ± 0.09
199.99 K, 15113 kPa	1482 ± 0.09
199.99 K, 17615 kPa	1495.8 ± 0.09
199.99 K, 20117 kPa	1509.3 ± 0.09
199.99 K, 25120 kPa	1535.6 ± 0.1
199.99 K, 30124 kPa	1560.8 ± 0.1
199.99 K, 35128 kPa	1585.2 ± 0.1
199.99 K, 40131 kPa	1608.7 ± 0.1
199.99 K, 45134 kPa	1631.5 ± 0.11
199.99 K, 50138 kPa	1653.5 ± 0.11
199.99 K, 60145 kPa	1695.8 ± 0.12
199.99 K, 70152 kPa	1735.8 ± 0.12
199.99 K, 80158 kPa	1773.8 ± 0.13
200 K, 90166 kPa	1810.1 ± 0.14
200 K, 100173 kPa	1844.9 ± 0.14
220 K, 1103.2 kPa	1276.9 ± 0.08
220 K, 2103.8 kPa	1284.3 ± 0.08
220 K, 3102.9 kPa	1291.5 ± 0.08
220 K, 3104.4 kPa	1291.5 ± 0.08
220 K, 4105.1 kPa	1298.6 ± 0.08
220 K, 5105.2 kPa	1305.7 ± 0.08
220 K, 6106 kPa	1312.7 ± 0.08
220 K, 7106.6 kPa	1319.5 ± 0.08
220 K, 8107.3 kPa	1326.3 ± 0.08
220 K, 9108 kPa	1333 ± 0.08
220 K, 10109 kPa	1339.7 ± 0.08
220 K, 10110 kPa	1339.7 ± 0.08
220 K, 12610 kPa	1356 ± 0.09
220 K, 15112 kPa	1371.8 ± 0.09
220 K, 17614 kPa	1387.2 ± 0.09
220 K, 20116 kPa	1402.2 ± 0.09
220 K, 20117 kPa	1402.2 ± 0.09
220 K, 25119 kPa	1431.2 ± 0.09
220 K, 30123 kPa	1459 ± 0.09
220 K, 30124 kPa	1459 ± 0.09
220 K, 35126 kPa	1485.6 ± 0.1
220 K, 40130 kPa	1511.2 ± 0.1
220 K, 40131 kPa	1511.2 ± 0.1
220 K, 45134 kPa	1535.8 ± 0.1
220 K, 50137 kPa	1559.7 ± 0.11
220 K, 60144 kPa	1605.2 ± 0.11
220 K, 70151 kPa	1648 ± 0.12
220 K, 80158 kPa	1688.5 ± 0.12
220 K, 90165 kPa	1727 ± 0.13
220 K, 100172 kPa	1763.8 ± 0.14
240 K, 402.14 kPa	1153 ± 0.08
240 K, 402.77 kPa	1153 ± 0.08
240 K, 602.82 kPa	1154.8 ± 0.08
240 K, 1103.6 kPa	1159 ± 0.08
240 K, 2103.9 kPa	1167.5 ± 0.08
240 K, 2104.3 kPa	1167.5 ± 0.08
240 K, 3104.9 kPa	1175.8 ± 0.08
240 K, 4105.7 kPa	1184 ± 0.08
240 K, 5106.3 kPa	1192.1 ± 0.08
240 K, 6107.2 kPa	1200 ± 0.08
240 K, 7108 kPa	1207.8 ± 0.08
240 K, 8108.1 kPa	1215.5 ± 0.08
240 K, 8109.3 kPa	1215.5 ± 0.08
240 K, 9110.1 kPa	1223.1 ± 0.08
240 K, 10111 kPa	1230.6 ± 0.08
240 K, 12613 kPa	1248.8 ± 0.08
240 K, 15113 kPa	1266.5 ± 0.08
240 K, 15114 kPa	1266.5 ± 0.08
240 K, 17616 kPa	1283.7 ± 0.08
240 K, 20118 kPa	1300.3 ± 0.09
240 K, 25121 kPa	1332.3 ± 0.09
240 K, 30124 kPa	1362.6 ± 0.09
240 K, 30125 kPa	1362.6 ± 0.09
240 K, 35128 kPa	1391.6 ± 0.09
240 K, 40132 kPa	1419.3 ± 0.1
240 K, 45135 kPa	1445.9 ± 0.1
240 K, 50139 kPa	1471.5 ± 0.1
240 K, 60146 kPa	1520.1 ± 0.11
240 K, 70153 kPa	1565.7 ± 0.11
240 K, 80160 kPa	1608.6 ± 0.12
240 K, 90167 kPa	1649.3 ± 0.13
240 K, 100174 kPa	1688 ± 0.13
259.99 K, 8108.1 kPa	1108.7 ± 0.08
259.99 K, 15113 kPa	1166 ± 0.08
259.99 K, 30123 kPa	1271.7 ± 0.09
260 K, 402.73 kPa	1036.8 ± 0.08
260 K, 405.47 kPa	1036.7 ± 0.08
260 K, 607.87 kPa	1038.8 ± 0.08
260 K, 1106.4 kPa	1043.8 ± 0.08
260 K, 2104 kPa	1053.6 ± 0.08
260 K, 2107.1 kPa	1053.6 ± 0.08
260 K, 3107.8 kPa	1063.2 ± 0.08
260 K, 4108.4 kPa	1072.7 ± 0.08
260 K, 5109.1 kPa	1081.9 ± 0.08
260 K, 6109.7 kPa	1091 ± 0.08
260 K, 7111 kPa	1099.9 ± 0.08
260 K, 8111.7 kPa	1108.6 ± 0.08
260 K, 9112.4 kPa	1117.2 ± 0.08
260 K, 10113 kPa	1125.7 ± 0.08
260 K, 12615 kPa	1146.2 ± 0.08
260 K, 15116 kPa	1166 ± 0.08
260 K, 17618 kPa	1185 ± 0.08
260 K, 20120 kPa	1203.5 ± 0.08
260 K, 25123 kPa	1238.6 ± 0.08
260 K, 30127 kPa	1271.7 ± 0.09
260 K, 35130 kPa	1303.1 ± 0.09
260 K, 40134 kPa	1333 ± 0.09
260 K, 45137 kPa	1361.5 ± 0.09
260 K, 50140 kPa	1388.9 ± 0.1
260 K, 60147 kPa	1440.6 ± 0.1
260 K, 70154 kPa	1488.7 ± 0.11
260 K, 80161 kPa	1533.9 ± 0.12
260 K, 90168 kPa	1576.6 ± 0.12
260 K, 100175 kPa	1617.2 ± 0.13
280 K, 402.43 kPa	921.86 ± 0.077
280 K, 602.22 kPa	924.25 ± 0.076
280 K, 606.25 kPa	924.3 ± 0.076
280 K, 1103.2 kPa	930.19 ± 0.076
280 K, 2103.9 kPa	941.79 ± 0.076
280 K, 3104.4 kPa	953.08 ± 0.076
280 K, 4105.1 kPa	964.08 ± 0.076
280 K, 5105.7 kPa	974.8 ± 0.076
280 K, 6106.3 kPa	985.26 ± 0.075
280 K, 7107 kPa	995.5 ± 0.076
280 K, 8107.9 kPa	1005.5 ± 0.07
280 K, 9108.6 kPa	1015.3 ± 0.07
280 K, 10109 kPa	1024.9 ± 0.08
280 K, 12611 kPa	1048 ± 0.08
280 K, 15113 kPa	1070.1 ± 0.08
280 K, 17614 kPa	1091.3 ± 0.08
280 K, 20116 kPa	1111.6 ± 0.08
280 K, 25119 kPa	1150.1 ± 0.08
280 K, 30123 kPa	1186.1 ± 0.08
280 K, 35126 kPa	1220 ± 0.08
280 K, 40130 kPa	1252.1 ± 0.09
280 K, 45133 kPa	1282.6 ± 0.09
280 K, 50137 kPa	1311.8 ± 0.09
280 K, 60144 kPa	1366.4 ± 0.1
280 K, 70151 kPa	1417.1 ± 0.1
280 K, 80158 kPa	1464.6 ± 0.11
280 K, 90164 kPa	1509.1 ± 0.12
280 K, 100171 kPa	1551.2 ± 0.12
299.99 K, 3104.6 kPa	844.54 ± 0.075
300 K, 601.97 kPa	809.82 ± 0.076
300 K, 1103.1 kPa	817.03 ± 0.076
300 K, 1103.4 kPa	817.08 ± 0.076
300 K, 4105.3 kPa	857.55 ± 0.075
300 K, 5106 kPa	870.14 ± 0.074
300 K, 5106.3 kPa	870.12 ± 0.074
300 K, 6106.5 kPa	882.34 ± 0.074
300 K, 7107.5 kPa	894.17 ± 0.074
300 K, 8108.1 kPa	905.68 ± 0.074
300 K, 9108.7 kPa	916.91 ± 0.074
300 K, 10109 kPa	927.83 ± 0.074
300 K, 12611 kPa	954.01 ± 0.074
300 K, 15113 kPa	978.78 ± 0.075
300 K, 17614 kPa	1002.3 ± 0.07
300 K, 20116 kPa	1024.8 ± 0.08
300 K, 25120 kPa	1066.9 ± 0.08
300 K, 30123 kPa	1105.9 ± 0.08
300 K, 35127 kPa	1142.4 ± 0.08
300 K, 40131 kPa	1176.7 ± 0.08
300 K, 45134 kPa	1209.2 ± 0.09
